One assay deals with AMPA receptors. Briefly: 3H-AMPA binding (Test 1). The settings on record: displacement of 50% of specific 3H-AMPA binding (5 nM); rat cerebral cortical membrane homogenate, 0°C, 30 min. The procedure:
The displacement activity of the compounds may be shown by determining the IC50 value which represents the concentration (µM) which causes a displacement of 50% of the specific binding of ^3H-AMPA.
^3H-AMPA binding (Test 1)
500 µl of thawed rat cerebral cortical membrane homogenate in Tris-HCI (30 mM), CaCl2 (2.5 mM) and KSCN (100 mM) pH 7.1 were incubated at 0°C for 30 min. with 25 µl ^3H-AMPA (5 nM final concentration) and the test compound and buffer. Nonspecific binding was determined by incubation with L-glutamic acid (600 µM final concentration). The binding reaction was terminated by adding 5 ml of ice-cold buffer followed by filtration through Whatman GF/C glass fibre filters and 2x5 ml wash with ice-cold buffer. Bound radioactivity was measured by scintillation counting. IC50 was determined by Hill analysis of at least four concentrations of test compound.

The test system of assay [1] is quisqualic acid stimulated spreading depression in chicken retina. In words: Spreading depression in chicken retina (Test 2). To be noted: 50% maximal inhibition of spreading depression; quisqualate 1 µg/ml, chick retina, 26°C. As for the experimental part: The antagonism is measured by determining the IC50 value which represents the concentration which produces a 50% maximal inhibition of quisqualic acid stimulated spreading depression in chicken retina.
Spreading depression (Test 2)
Chicks (3-10 days old) were decapitated, the eyes enucleated and sectioned along the equatorial plane. After removal of the anterior chamber and the vitreous body, the posterior chamber of each eye was placed in a small petri dish containing a physiological saline solution (P.S.S.) of the following composition (mM) NaCI (100), KCI (6.0), CaCl2 (1.0), MgSO4 (1.0), NaHCO3 (30), NaH2PO4 (1.0), glucose (20).
The solution was saturated with 100% O2 and maintained at a temperature of 26°C.
The eyes were initially incubated in normal P.S.S. for 15-30 min. and then transferred to P.S.S. containing quisqualate (1 µg/ml). […] The time taken for an S.D. to start in each eye was measured.
After a further 15 min. of incubation in normal P.S.S. the eyes were transferred to normal P.S.S. containing the test compound and incubated for 15 min. […] The time taken for an S.D. to start in each eye was measured again. The eyes were then placed back in normal P.S.S. and after 15 min. the time taken for S.D. to start was measured again, in order to assess the degree of recovery from any drug effects. […]

`CCOP(=O)(O)Cc1nnc2c(=O)[nH]c3cc(C(F)(F)F)c(-n4ccnc4)cc3n12` [Example 1, 1-(Ethoxy-hydroxy-phosphorylmethyl)-8-(1H-imidazol-1-yl)-7-trifluoromethyl[1,2,4]triazolo[4,3-a]quinoxalin-4(5H)-one]: the values for the half-inhibitory concentration (IC50) (on AMPA receptors; in assay [1]) were 240 nM and 1310 nM, respectively.

(Values after patent EP0781282B1, “[1,2,4]TRIAZOLO[4,3-a]QUINOXALINONE DERIVATIVES, THEIR PREPARATION AND USE” (NOVO NORDISK A/S, priority 1994, dated 1996).)
